US8722849B2, “Polypeptides” (Novo Nordisk A/S, priority 2011, dated 2014)
In brackets after ≈: the same amount, converted by molar mass. Read-outs that look alike come from different tables or passages of the source. Starred links: 1 amine or outer side, 2 acyl side, 3 side chain; linkers in the order of their positions; H or OH if unused. Positions of bridges follow the written chain, without caps; N, C: chain ends. Residues, ends and D or L forms follow the SMILES beside them. *: point of attachment. C20 diacid = O=C(O)CCCCCCCCCCCCCCCCCCC(=O)*; C18 diacid = O=C(O)CCCCCCCCCCCCCCCCC(=O)*; γGlu = O=C(O)[C@H](CCC(=O)[*:2])N[*:1]

Legend:
[1] = Assay (IV) determination of solubility; assay type: physicochemical
Method in brief: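 Polypeptide in water (~500 nmol/ml) mixed 1:1 with 100 mM glycylglycine (pH 3.0–5.0) or bistrispropane (pH 6.0–8.0) buffers. Held 18 hours at room temperature, then centrifuged. Polypeptide remaining in solution quantified by HPLC.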

[2] = Assay (III) ThT fibrillation assay for physical stability; assay type: physicochemical
Method in brief: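 Freshly prepared formulations, pH-adjusted, with 1 μM ThT; four or eight replicates incubated at 37 °C under 960 rpm orbital shaking. Fluorescence (ex 444/em 485 nm) read every 20 min; […]. Peptide concentration measured by RP-HPLC before and after the run.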

[3] = target: T1, human calcitonin receptor (Homo sapiens, UniProt P30988); test: Assay (II)a functional CRE-luciferase assay, human calcitonin receptor; assay type: cell-based; details: Table 7; human calcitonin (CTa) receptor
T1 construct: expressed in transfected cells; host or cells: BHK570
T1 sequence (P30988 25-474): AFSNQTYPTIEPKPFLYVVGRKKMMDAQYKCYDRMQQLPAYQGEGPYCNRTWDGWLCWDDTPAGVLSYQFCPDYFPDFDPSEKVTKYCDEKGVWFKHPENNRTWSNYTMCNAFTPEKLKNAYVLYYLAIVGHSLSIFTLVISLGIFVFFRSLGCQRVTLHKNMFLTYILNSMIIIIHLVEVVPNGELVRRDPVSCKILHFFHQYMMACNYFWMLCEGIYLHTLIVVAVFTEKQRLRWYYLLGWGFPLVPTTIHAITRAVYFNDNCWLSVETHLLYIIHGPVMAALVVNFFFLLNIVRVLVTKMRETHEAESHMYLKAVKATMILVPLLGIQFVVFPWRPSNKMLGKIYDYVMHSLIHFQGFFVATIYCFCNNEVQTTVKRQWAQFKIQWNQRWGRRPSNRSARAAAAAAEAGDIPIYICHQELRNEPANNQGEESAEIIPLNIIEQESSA

[4] = target: T2, human amylin receptor (amylin 3(a) receptor: human calcitonin receptor + RAMP-3) (Homo sapiens, UniProt O60896+P30988); test: Assay (II)a functional CRE-luciferase assay, human amylin receptor; assay type: cell-based; details: Table 2; BHK amylin 3(a)-receptor/CRE-luc cells
T2 construct: expressed in transfected cells; host or cells: BHK570
T2 sequence (P30988 25-474): T1 sequence (P30988 25-474)
T2 sequence (O60896 24-148 partner): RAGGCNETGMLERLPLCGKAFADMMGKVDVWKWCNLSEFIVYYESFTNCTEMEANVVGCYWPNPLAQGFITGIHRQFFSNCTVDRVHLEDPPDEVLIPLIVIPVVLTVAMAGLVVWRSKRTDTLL

[5] = bistrispropane buffer, pH 6, pH 6.0, read-out: Solubility pH 6.0
[6] = bistrispropane buffer, pH 6.5, pH 6.5, read-out: Solubility pH 6.5
[7] = bistrispropane buffer, pH 7, pH 7.0, 18 hours at room temperature, Table 3, read-out: Solubility pH 7.0
[8] = bistrispropane buffer, pH 7, pH 7.0, read-out: Solubility pH 7.0
[9] = bistrispropane buffer, pH 7.5, pH 7.5, read-out: Solubility pH 7.5
[10] = bistrispropane buffer, pH 8, pH 8.0, read-out: Solubility pH 8.0
[11] = glycylglycine buffer, pH 3, pH 3.0, read-out: Solubility pH 3.0
[12] = glycylglycine buffer, pH 4, pH 4.0, 18 hours at room temperature, Table 2, read-out: Solubility pH 4.0
[13] = glycylglycine buffer, pH 4, pH 4.0, read-out: Solubility pH 4.0
[14] = glycylglycine buffer, pH 5, pH 5.0, read-out: Solubility pH 5.0

solubility at 18 h [1, 5] [µM]	solubility at 18 h [1, 6] [µM]	solubility at 18 h [1, 7] [µM]	solubility at 18 h [1, 8] [µM]	solubility at 18 h [1, 9] [µM]	solubility at 18 h [1, 10] [µM]	solubility at 18 h [1, 11] [µM]	solubility at 18 h [1, 12] [µM]	solubility at 18 h [1, 13] [µM]	solubility at 18 h [1, 14] [µM]	ThT pH 4.0 lag time (h) ([2]; ThT fibrillation assay)	EC50 [3] [nM]	EC50 [4] [nM]	solubility at 18 h ([1]; bistrispropane buffer, pH 7, pH 7.0, Table 8, read-out: Solubility pH 7.0) [µM]	ThT pH 4.0 lag time ([2]; Table 8) [h]	ThT pH 4.0 lag time ([2]; ThT fibrillation assay) [h]	SMILES
> 200	> 200	> 200	> 200	> 200	> 200	> 200	> 200	> 200	69 (≈ 309 µg/mL)	4.7	0.753	0.174	–	–	–	CC[C@H](C)[C@H](NC(=O)[C@@H]1CCCN1C(=O)CNC(=O)[C@H](Cc1ccccc1)NC(=O)[C@H](CC(N)=O)NC(=O)[C@H](CC(N)=O)NC(=O)[C@H](CO)NC(=O)[C@H](CO)NC(=O)[C@H](CCCNC(=N)N)NC(=O)[C@H](Cc1c[nH]cn1)NC(=O)[C@H](CC(C)C)NC(=O)[C@H](Cc1ccccc1)NC(=O)[C@H](CCC(=O)O)NC(=O)[C@H](C)NC(=O)[C@H](CC(C)C)NC(=O)[C@H](CCCNC(=N)N)NC(=O)[C@H](CCC(N)=O)NC(=O)[C@@H](NC(=O)[C@H](C)NC(=O)[C@@H]1CSSC[C@H](NC(=O)[C@H](CCC(=O)O)NC(=O)CC[C@H](NC(=O)CCCCCCCCCCCCCCCCCCC(=O)O)C(=O)O)C(=O)N[C@@H](CC(N)=O)C(=O)N[C@@H]([C@@H](C)O)C(=O)N[C@@H](C)C(=O)N[C@@H]([C@@H](C)O)C(=O)N1)[C@@H](C)O)C(=O)N[C@@H](CC(C)C)C(=O)N1CCC[C@H]1C(=O)N1CCC[C@H]1C(=O)N[C@H](C(=O)N[C@@H](CC(N)=O)C(=O)N[C@H](C(=O)NCC(=O)N[C@@H](CO)C(=O)N[C@@H](CC(N)=O)C(=O)N[C@H](C(=O)N[C@@H](Cc1ccc(O)cc1)C(N)=O)[C@@H](C)O)C(C)C)[C@@H](C)O [Example 30, N-alpha-[(S)-4-Carboxy-4-(19-carboxynonadecanoylamino)butyryl]-[Glu1,Glu14,His17,Arg18]-pramlintide] ({C20 diacid-γGlu}-ECNTATCATQRLAEFLHRSSNNFGPILPPTNVGSNTY-NH2; disulfide 2-7 (inferred))
1 (≈ 4.71 µg/mL)	1 (≈ 4.71 µg/mL)	–	1 (≈ 4.71 µg/mL)	1 (≈ 4.71 µg/mL)	4 (≈ 18.9 µg/mL)	> 200	118 (≈ 556 µg/mL)	118 (≈ 556 µg/mL)	1 (≈ 4.71 µg/mL)	0	0.798	0.402	–	–	–	CC[C@H](C)[C@H](NC(=O)[C@@H]1CCCN1C(=O)CNC(=O)[C@H](Cc1ccccc1)NC(=O)[C@H](CC(N)=O)NC(=O)[C@H](CC(N)=O)NC(=O)[C@H](CO)NC(=O)[C@H](CO)NC(=O)[C@H](Cc1c[nH]cn1)NC(=O)[C@H](Cc1c[nH]cn1)NC(=O)[C@H](CC(C)C)NC(=O)[C@H](Cc1ccccc1)NC(=O)[C@H](CCC(=O)O)NC(=O)[C@H](C)NC(=O)[C@H](CC(C)C)NC(=O)[C@H](CCCNC(=N)N)NC(=O)[C@H](CCC(N)=O)NC(=O)[C@@H](NC(=O)[C@H](C)NC(=O)[C@@H]1CSSC[C@H](NC(=O)[C@H](CCCCN)NC(=O)[C@H](CCC(=O)O)NC(=O)[C@H](CCC(=O)O)NC(=O)CC[C@H](NC(=O)CCCCCCCCCCCCCCCCCCC(=O)O)C(=O)O)C(=O)N[C@@H](CC(N)=O)C(=O)N[C@@H]([C@@H](C)O)C(=O)N[C@@H](C)C(=O)N[C@@H]([C@@H](C)O)C(=O)N1)[C@@H](C)O)C(=O)N[C@@H](CC(C)C)C(=O)N1CCC[C@H]1C(=O)N1CCC[C@H]1C(=O)N[C@H](C(=O)N[C@@H](CC(N)=O)C(=O)N[C@H](C(=O)NCC(=O)N[C@@H](CO)C(=O)N[C@@H](CC(N)=O)C(=O)N[C@H](C(=O)N[C@@H](Cc1ccc(O)cc1)C(N)=O)[C@@H](C)O)C(C)C)[C@@H](C)O [Example 41, N-alpha-[(S)-4-Carboxy-4-(19-carboxynonadecanoylamino)butyryl]-Glu-Glu-[Glu14,His17]-pramlintide] ({C20 diacid-γGlu}-EEKCNTATCATQRLAEFLHHSSNNFGPILPPTNVGSNTY-NH2; disulfide 4-9 (inferred))
> 200	> 200	> 200	> 200	> 200	> 200	> 200	> 200	> 200	> 200	28.7	0.6	0.061	> 200	28.7	28.7	CC[C@H](C)[C@H](NC(=O)[C@@H]1CCCN1C(=O)CNC(=O)[C@H](Cc1ccccc1)NC(=O)[C@H](CC(N)=O)NC(=O)[C@H](CC(N)=O)NC(=O)[C@H](CO)NC(=O)[C@H](CO)NC(=O)[C@H](Cc1c[nH]cn1)NC(=O)[C@H](CCCNC(=N)N)NC(=O)[C@H](CC(C)C)NC(=O)[C@H](Cc1ccccc1)NC(=O)[C@H](CCC(=O)O)NC(=O)[C@H](C)NC(=O)[C@H](CC(C)C)NC(=O)[C@H](CCCNC(=N)N)NC(=O)[C@H](CCC(N)=O)NC(=O)[C@@H](NC(=O)[C@H](C)NC(=O)[C@@H]1CSSC[C@H](NC(=O)[C@H](CCCCN)NC(=O)CC[C@H](NC(=O)CCCCCCCCCCCCCCCCC(=O)O)C(=O)O)C(=O)N[C@@H](CC(N)=O)C(=O)N[C@@H]([C@@H](C)O)C(=O)N[C@@H](C)C(=O)N[C@@H]([C@@H](C)O)C(=O)N1)[C@@H](C)O)C(=O)N[C@@H](CC(C)C)C(=O)N1CCC[C@H]1C(=O)N1CCC[C@H]1C(=O)N[C@H](C(=O)N[C@@H](CC(N)=O)C(=O)N[C@H](C(=O)NCC(=O)N[C@@H](CO)C(=O)N[C@@H](CC(N)=O)C(=O)N[C@H](C(=O)N[C@@H](Cc1ccc(O)cc1)C(N)=O)[C@@H](C)O)C(C)C)[C@@H](C)O [Example 51, N-alpha-[(S)-4-Carboxy-4-(17-carboxyheptadecanoylamino)butyryl]-[Glu14,Arg17]-pramlintide] ({C18 diacid-γGlu}-KCNTATCATQRLAEFLRHSSNNFGPILPPTNVGSNTY-NH2; disulfide 2-7 (inferred); C-terminus assumed)
